Laboratory results from US20050249831A1, “Herbal extract comprising a mixture of saponins obtained from sapindus trifoliatus for anticonvulsant activity” (priority 2002, published 2005).

Tests used:
[1] = tested on: MES induced seizures in rats; assay: Maximal Electroshock Seizure (MES) model; assay type: in vivo; conditions: Rattus norvegicus, ip, read-out: ED50, protection to hind limb tonic extension due to electroshock
Protocol: In order to evaluate the efficacy of the extract of Sapindus trifoliatus, for its prophylactic therapeutic potential in migraine, its role as an anticonvulsant was evaluated in an in vivo animal model. […]
Male Wistar rats (150-200 g) were used in the study. […] Mortality if any was recorded. […]
Values of incidence and mortality were expressed as ratios and analysed by Fisher's test. The latency for onset and duration of hind limb extension of maximal electroshock induced convulsions were averaged, expressed as mean±standard deviation. Mean values were analysed by one way ANOVA followed by Dunnett ‘t’ test for multiple comparison or Students ‘t’ test for comparing two means. […] ED50 values were calculated by probit analysis [Finney, D. J., Probit Analysis, Cambridge University Press, London, 1947].

[2] = tested on: PTZ induced seizures in rats; assay type: in vivo; conditions: 4 mg/kg, i.p., 2 ml/kg, standard control

| Structure (SMILES) | ED50 [1] | Protection against PTZ induced seizures [2] |
| --- | --- | --- |
| CCCC(CCC)C(=O)[O-].[Na+] [Sodium valproate] | 67.7 mg/kg | – |
| CN1C(=O)CN=C(c2ccccc2)c2cc(Cl)ccc21 [diazepam, Diazepam] | – | significantly protected |
